From patent publication US20030187003A1, “Pharmaceutical compositions and method for the treatment of retroviral infections” (priority 2000, published 2003)
Like-named read-outs stand apart in the source and are kept apart here.

What was measured:
IN = IN (Human immunodeficiency virus type 1 group M subtype B, UniProt P04585); conditions: background section; read-out: IC50 inhibition of IN; cited from earlier work
[1] = tested on: HIV-1-derived vectors pseudotyped with the VSV-G envelope; experiment: microbe, parasite or virus in culture; format: cell-based; conditions: Human immunodeficiency virus 1, HEK-293T, read-out: EC50 inhibition of lentiviral transduction
[2] = target: T1, recombinant His-tagged HIV-1 integrase (Human immunodeficiency virus type 1 group M subtype B, UniProt P04585); experiment: HIV-1 integrase 3′-processing assay, oligonucleotide-based; conditions: for inhibition of the 3-processing reaction: in words
Protocol: (§1) Reactions were started by the addition of the enzyme. Inhibitors were incubated shortly with the reaction components before the addition of integrase. Reactions were allowed to proceed at 37° C. for 7 minutes and stopped by the addition of formamide loading buffer (95% formamide, 30 mM ethylenediamine tetraacetic acid, 0.1% xylene cyanol, 0.1% bromophenol blue, 0.1% sodium dilaurylsulfate SDS). In the overall integration assay, this reaction was allowed to proceed for 60 minutes before the addition of a formamide dye.

HIV-2 (EHO) = experiment: inhibition of virus-induced cytopathicity in MT-4 cells, HIV-2 (EHO); format: cell-based; conditions: for EC50: Human immunodeficiency virus 2, MT4, 120 h, read-out: EC50 HIV-2 EHO
[3] = cytotoxicity, viability of mock-infected cells; format: cell-based; conditions: human, viability of mock-infected MT-4 cells
Protocol: Cytotoxicity of these compounds was determined in parallel by measuring the viability of mock-infected MT-4 or C8166 cells 5 days post-infection. The antiviral activity and cytotoxicity data, including average values and standard deviations for at least two separate experiments, are depicted in Table 2, wherein: CC50 represents the 50% cytotoxic concentration, i.e. the concentration that reduces by 50% the viability of MT-4 cells.

HIV-1 L1 = experiment: inhibition of virus-induced cytopathicity in MT-4 cells, HIV-1 clinical isolate L1; format: cell-based; conditions: Human immunodeficiency virus 1, MT4, 120 h, read-out: EC50 HIV-1 L1
SIV (MAC251) = experiment: inhibition of virus-induced cytopathicity in MT-4 cells, SIV (MAC251); format: cell-based, Simian immunodeficiency virus; conditions: for EC50: Simian immunodeficiency virus, MT4, 120 h, read-out: EC50 SIV MAC251
HIV-1(IIIB) = experiment: inhibition of virus-induced cytopathicity in MT-4 cells, HIV-1 (IIIB); format: cell-based; conditions: for EC50: Human immunodeficiency virus 1, IIIB, MT4, 120 h, MT-4 cells, viral cytopathic effect, 5 days post-infection; for activity against the replication of HIV-1(IIIB): in words
HIV-2 (ROD) = experiment: inhibition of virus-induced cytopathicity in MT-4 cells, HIV-2 (ROD); format: cell-based; conditions: for EC50: Human immunodeficiency virus 2, MT4, 120 h, read-out: EC50 HIV-2 ROD
[4] = target: T1, recombinant His-tagged HIV-1 integrase; experiment: HIV-1 integrase overall integration assay, oligonucleotide-based; conditions: for inhibition of the overall integration reaction: in words
Protocol: as §1

[5] = target: T1, recombinant His-tagged HIV-1 integrase; experiment: HIV-1 integrase strand transfer assay, oligonucleotide-based
[6] = target: T2, Recombinant HIV-1 RT (HXB2) (Human immunodeficiency virus type 1 group M subtype B, UniProt P04585); experiment: inhibition of HIV-1 reverse transcriptase enzymatic activity; format: biochemical
T2 construct: Recombinant HIV-1 RT (HXB2) was obtained as described by Jonckheere et al; made in house
Source text: Poly(rC).oligo(dG) and poly (rA).oligo(dT) were used as template-primers, and 8-[^3H]-dGTP and [^3H]-dTTP were used as radiolabelled substrates.

HIV-1 L6 = format: cell-based; conditions: L6 versus wild type strain L1
HIV-1 L4 = format: cell-based
HIV-1 L2 = format: cell-based
[7] = MT-4 cells, viral cytopathic effect, 5 days post-infection
[8] = IC50 Poly(A).oligo(dT), template-primer poly(A).oligo(dT)
[9] = IC50 poly(C).oligo(dG), template-primer poly(C).oligo(dG)

Compound | IC50 [2] [µM] | EC50 (HIV-2 (EHO); [7]) [µM] | CC50 at 5 days [3] [µM] | EC50 (HIV-1 L1; [7]) [µM] | EC50 (SIV (MAC251); [7]) [µM] | EC50 (HIV-1(IIIB)) [µM] | EC50 (HIV-2 (ROD); [7]) [µM] | IC50 [4] [µM] | also measured
[N-]=[N+]=Nc1cn([C@H]2C[C@H](N=[N+]=[N-])[C@@H](COP(=O)(O)O)O2)c(=O)[nH]c1=O [5-N3-AZUMP, 3′,5-diazido-2′,3′-dideoxyuridine 5′-monophosphate] |  |  |  |  |  |  |  |  | IC50 (IN): 150 µM
Cc1cn([C@H]2C[C@H](N=[N+]=[N-])[C@@H](CO)O2)c(=O)[nH]c1=O [AZT, reference compound] |  |  |  |  |  |  |  |  | EC50 [1]: 49 nM
Oc1nc(O)c2c(n1)Oc1nc(O)nc(O)c1C2c1ccc(I)cc1 [A] | > 207 | > 276 | > 276 | > 276 | > 276 | > 276 | > 276 | > 207 | 
Clc1nc(Cl)c2c(n1)Oc1nc(Cl)nc(Cl)c1C2c1ccccc1 [B] | 74 ± 38.5 | > 17.5 | 17.5 | > 17.5 | > 17.5 | > 17.5 | > 17.5 | 25 ± 4.5 | 
Oc1nc(O)c2c(n1)Oc1nc(O)nc(O)c1C2c1ccccc1 [C] | 22.4 ± 6.4 |  | > 383 |  |  | 170 ± 45 |  | 34.6 ± 11.3 | inhibition of the 3-processing reaction [2]: inhibited; EC50 (HIV-2 (EHO)): 169 ± 27 µM; IC50 [5]: 782 ± 242 µM; EC50 (HIV-1 L1): 116 ± 30 µM; EC50 (SIV (MAC251)): 194 µM; activity against the replication of HIV-1(IIIB) (HIV-1(IIIB)): active; EC50 (HIV-2 (ROD)): > 383 µM; IC50 [6, 8]: 33.1 ± 15.1 µM; IC50 [6, 9]: 15.1 ± 5.9 µM; inhibition of the overall integration reaction [4]: inhibited
COc1nc(O)nc2c1C(c1ccc([N+](=O)[O-])cc1)c1c(OC)nc(O)nc1O2 [D] | > 250 | > 313 | > 313 | > 313 | > 313 | > 313 | > 313 | > 250 | 
Oc1nc(O)c2c(n1)Oc1nc(O)nc(O)c1C2c1ccc(Br)cc1 [E] | 208 ± 82.2 |  | > 309 |  |  | 273 ± 38 |  | 298 ± 7.7 | inhibition of the 3-processing reaction [2]: inhibited; EC50 (HIV-2 (EHO)): > 309 µM; IC50 [5]: > 1240 µM; EC50 (HIV-1 L1): > 309 µM; EC50 (SIV (MAC251)): > 309 µM; activity against the replication of HIV-1(IIIB) (HIV-1(IIIB)): active; EC50 (HIV-2 (ROD)): > 309 µM; IC50 [6, 8]: > 494 µM; IC50 [6, 9]: > 494 µM; inhibition of the overall integration reaction [4]: inhibited
Oc1nc(O)c2c(n1)Oc1nc(O)nc(O)c1C2c1ccc(Cl)cc1 [F] | 144 ± 81.3 | > 347 | > 347 | > 347 | > 347 | > 347 | > 347 | 97.1 ± 93.8 | 
Oc1nc(S)nc2c1C(c1ccc(Cl)cc1)c1c(O)nc(S)nc1O2 [G] | 0.9 ± 0.5 |  | 137 |  |  | 56.8 ± 30 |  | 1 ± 0.4 | fold increase in EC50 (HIV-1 L6): 1.8; inhibition of the 3-processing reaction [2]: inhibited; EC50 (HIV-2 (EHO)): > 137 µM; IC50 [5]: 201 ± 120 µM; EC50 (HIV-1 L4; Human immunodeficiency virus 1): 163 ± 3.7 µM; fold increase in EC50 (HIV-1 L4; L4 versus wild type strain L1): 1.6; EC50 (HIV-1 L2; Human immunodeficiency virus 1): 95.6 ± 6.5 µM; fold increase in EC50 (HIV-1 L2; L2 versus wild type strain L1): 0.9; EC50 (HIV-1 L1): 101 ± 32 µM; EC50 (SIV (MAC251)): 100 µM; activity against the replication of HIV-1(IIIB) (HIV-1(IIIB)): active; EC50 (HIV-2 (ROD)): > 137 µM; IC50 [6, 8]: 35.2 ± 0.4 µM; IC50 [6, 9]: 25.8 ± 15.9 µM; inhibition of the overall integration reaction [4]: inhibited
Cc1ccnc2c1NC(=O)c1cccnc1N2C1CC1 [nevirapine, reference compound] |  | > 97.6 | > 97.6 | 0.06 ± 0.01 | > 97.6 | 0.04 | > 97.6 |  | activity against the replication of HIV-2 (EHO) (HIV-2 (EHO); at 98 μM in MT-4 cells): inactive; activity against the replication of SIV (MAC251) (SIV (MAC251); at 98 μM in MT-4 cells): inactive; activity against the replication of HIV-2 (ROD) (HIV-2 (ROD); at 98 μM in MT-4 cells): inactive
Dextran sulfate [reference compound] |  |  |  |  |  |  |  |  | IC50 ([6]; template-primer poly(A).oligo(dT), read-out: IC50 Poly(A).oligo(dT)): 22 ± 8.8 µM; IC50 ([6]; template-primer poly(C).oligo(dG), read-out: IC50 poly(C).oligo(dG)): 7.3 ± 3.2 µM
